Measurements from patent publication US6995190B2 (Veterinary Solutions, priority 2001, dated 2006).

Columns and labels:
platelet cyclo-oxygenase = conditions: horse, cited from earlier work
[1] = system: PRRS (Porcine Respiratory and Reproductive Syndrome) Virus; experiment: PRRS virus outbreak in swine nursery, Ketoprofen orally; type: in vivo; conditions: orally for 7 days, along with the same other therapy as controls
Text: A swine client with a 10,000 head nursery was experiencing severe mortality due to a PRRS (Porcine Respiratory and Reproductive Syndrome) Virus outbreak. They had used antibiotics with only partial success and were seeing mortalities as high as 30 percent in the group. […] We also saw less chronic pigs in the treatment group 3% versus 15% in the controls.

swine influenza = type: in vivo, finishing hogs
[2] = system: horse with chronic laminitis; experiment: Horse with chronic laminitis, Ketoprofen in the water, acceptance and intake; type: in vivo; conditions: 1 mg per pound in the water for 2 weeks
[3] = 1 mg/pound for 3 days orally through the drinking water

## CN=C1CCN(c2cccc(C(F)(F)F)c2)N1 [BW540C]
Platelet cyclo-oxygenase; carrageenin tissue-cage exudate
  reductions in exudates eicosanoid concentrations: less pronounced
Platelet cyclo-oxygenase; oral
  duration of inhibition of platelet cyclo-oxygenase: 24 h

## CC(C(=O)O)c1cccc(C(=O)c2ccccc2)c1 (stereo not drawn) [Ketoprofen]
[1]
  chronic pigs: 3%
  mortality: 7%
Swine influenza; [3]
  morbidity at the time of the outbreak: 10%
  mortality: 2.1%
Swine influenza; 1 mg/pound for 3 days orally through the drinking water, 150 pound finishing hogs marketed at 260 pounds
  average time to market, less than the control group: 9 days
Swine influenza; two weeks after the outbreak
  follow-up mass medication with antibiotics: did not require any mass medication with antibiotics
[2]
  pain compared with previous treatment (phenylbutazone): less painful
